Test results as given in patent publication US11372007B2, “Method of detecting biological material, and chemiluminescent indicator used therein” (Osaka University, priority 2017, dated 2022).

Key:
UnaG protein = UnaG protein (wild type; UniProtKB/Swiss-Prot: P0DM59.1, GenBank: AB763906.1); conditions: indirect bilirubin; Kumagai et al., Cell 2013, 153, 1602-1611; read-out: dissociation constant; cited from earlier work
[1] = molecular target: T1, UnaG (CΔ0)-NLuc (NΔ1) fusion protein (wild-type chemiluminescent bilirubin indicator, linker GT), SEQ ID NO: 12 (Anguilla japonica, UniProt P0DM59); assay: titration curve of the wild-type chemiluminescent bilirubin indicator with bilirubin (luminescence spectra, Hill fit); assay type: binding
T1 construct: made in house; host or cells: E. coli JM109 (DE3)
T1 sequence (P0DM59 with tags, fused parts or gaps): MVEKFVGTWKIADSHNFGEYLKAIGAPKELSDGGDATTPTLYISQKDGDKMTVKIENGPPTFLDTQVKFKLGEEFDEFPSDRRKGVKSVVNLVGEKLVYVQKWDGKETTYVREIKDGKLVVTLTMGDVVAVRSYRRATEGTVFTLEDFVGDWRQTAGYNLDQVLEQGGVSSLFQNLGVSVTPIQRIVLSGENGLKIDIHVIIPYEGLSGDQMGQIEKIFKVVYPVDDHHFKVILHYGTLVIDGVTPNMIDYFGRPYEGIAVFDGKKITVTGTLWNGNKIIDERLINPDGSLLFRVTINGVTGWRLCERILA
Experimental: The base sequence of this UnaG (CΔ0)-NLuc (NΔ1) fusion protein is represented by SEQ ID NO: 11, and the amino acid sequence of the same is represented by SEQ ID NO: 12.
The JM109 (DE3) strain transformed with the UnaG (CΔ0)-NLuc (NΔ1) fusion protein was cultured at 23° C. for 60 hours in 200 mL of LB medium containing 100 μg/mL Carvenisillin solution. After harvesting, the E. coli cells were disrupted by the French press method and purified by affinity chromatography using a Ni-NTA column (QIAGEN). Furthermore, in order to remove excess imidazole, a gel filtration column (PD-10, GE HealthCare) was used. The protein concentration was measured by the Bradford method.
500 μL of the purified UnaG (CΔ0)-NLuc (NΔ1) fusion protein was added to a 15-mL Falcon tube and frozen with liquid nitrogen. Thereafter, a powder of the protein solution was obtained by a lyophilizer. […]
0.01 nM, 0.05 nM, 0.1 nM, 0.5 nM, 1 nM, 2.5 nM, 5 nM, or 10 nM bilirubin (BR) solution and Coelenterazine-h at a final concentration of 5 μM were mixed with the UnaG(CΔ0)-NLuc(NΔ1) fusion protein at a final concentration of 5 nM, and luminescence spectra were measured using a multichannel spectroscope (PMA-12, manufactured by Hamamatsu Photonics K.K.) or a plate reader. […] Mean values of measured values obtained by three independent measurements were plotted, and then fitted as per the Hill equation. […]

| SMILES | Kd (UnaG protein) [nM] | Kd ([1]; fusion protein 5 nM, bilirubin 0.01-10 nM, Coelenterazine-h 5 μM, mean of three independent measurements, fitted as per the Hill equation) [nM] | affinity for bilirubin (dissociation constant, Kd value), change on storage ([1]; lyophilized sample dissolved in water, stored at room temperature) |
| --- | --- | --- | --- |
| C=CC1=C(C)/C(=C/c2[nH]c(Cc3[nH]c(/C=C4\NC(=O)C(C)=C4C=C)c(C)c3CCC(=O)O)c(CCC(=O)O)c2C)NC1=O [indirect bilirubin] | 0.098 |  |  |
| C=CC1=C(C)/C(=C/c2[nH]c(Cc3[nH]c(/C=C4\NC(=O)C(C)=C4C=C)c(C)c3CCC(=O)O)c(CCC(=O)O)c2C)NC1=O [bilirubin] |  | 3.05 | the affinity was slightly reduced |
